For series [1], the system named is Influenza A virus. Description: Anti-influenza activity against Influenza A virus H5N8 infected in chicken embryo fibroblast assessed as reduction in viral growth. In kind it is functional, organism-based.
For series [2], the system named is Influenza A virus. Description: Anti-influenza activity against Influenza A virus A/PR/8/34 infected in chicken embryo fibroblast assessed as reduction in viral growth. Particulars: A/PR/8/34, Fibroblast. In kind it is functional, organism-based.
Series [3] deals with Fibroblast. Description: (§1) Cytotoxicity against chicken embryo fibroblast cells assessed as reduction in cell growth at 50 uM by CCK-8 assay relative to control. On the set-up: Activity: scale not given: the % may be the effect or the level left. In kind it is toxicity, cell-based, Gallus gallus. The note with it: fibroblast, 50 µM. In general terms: Tetrazolium dyes change colour on reduction, which living cells bring about.

The nature of series [4]: as §1. In kind it is toxicity, cell-based, Gallus gallus. On the set-up: Activity: scale not given: the % may be the effect or the level left. The note with it: chicken embryo fibroblast cells, read-out: Activity.
Series [5] concerns Influenza A virus. The series can be described thus: Anti-influenza activity against Influenza A virus A/Goose/Guangdong/SH7/2013 (H5N1) infected in chicken embryo fibroblast assessed as inhibition of virus-induced cytopathic effect. In kind it is functional. Background: Cytopathic effects are the visible damage that an infection or toxin causes in cultured cells.
The test system of series [6] is Influenza A virus. Description: Anti-influenza activity against Influenza A virus H5N1 infected in chicken embryo fibroblast assessed as reduction in viral growth. In kind it is functional, organism-based.
Series [7] has as its system Influenza A virus. Description: Anti-influenza activity against Influenza A virus pdm09 infected in chicken embryo fibroblast assessed as reduction in viral growth. In kind it is functional, organism-based.
For series [8], the system named is Influenza A virus. The series can be described thus: Anti-influenza activity against Influenza A virus B/Victoria infected in chicken embryo fibroblast assessed as reduction in viral growth. In kind it is functional, organism-based.
The subject of series [9] is Influenza A virus. Description: Anti-influenza activity against Influenza A virus A/Brisbane/10/2007 infected in chicken embryo fibroblast assessed as reduction in viral growth. In kind it is functional, organism-based. Particulars: A/Brisbane/10/2007, Fibroblast.
For series [10], the system named is Influenza A virus. The series can be described thus: Anti-influenza activity against Influenza A virus B/Yamagata infected in chicken embryo fibroblast assessed as reduction in viral growth. In kind it is functional, organism-based.
Series [11] in a line: Cytotoxicity against chicken embryo fibroblast cells assessed as reduction in cell growth by CCK-8. In kind it is toxicity, cell-based, Gallus gallus.
Series [12] addresses Single-stranded DNA cytosine deaminase (Homo sapiens) (UniProt Q9GZX7). Description: Induction of GFP-tagged AID degradation in human A549 cells at 20 uM. In kind it is cell-based.
Series [13] relates to Influenza A virus. The series can be described thus: Anti-influenza activity against Influenza A virus A/Goose/Guangdong/SH7/2013 (H5N1) infected in chicken embryo fibroblast at MOI 1 assessed as decrease in ratio of cytoplasmic to nuclear NP level at 10 uM measured after 10 hr post infection by Western blot analysis. In kind it is functional, organism-based. On the technique in general: In western blotting, separated proteins are transferred to a membrane and probed.

Series [14] deals with Exportin-1 (Homo sapiens) (UniProt O14980). Description: Inhibition of CRM1-mediated nuclear export in human A549 cells assessed as distribution of GFP-tagged AID in cytoplasm at 20 uM administered for 12 hrs and measured after 24 hrs by fluorescence microscopy analysis. In kind it is cell-based.
Exportin-1 (Homo sapiens), sequence (O14980 whole entry): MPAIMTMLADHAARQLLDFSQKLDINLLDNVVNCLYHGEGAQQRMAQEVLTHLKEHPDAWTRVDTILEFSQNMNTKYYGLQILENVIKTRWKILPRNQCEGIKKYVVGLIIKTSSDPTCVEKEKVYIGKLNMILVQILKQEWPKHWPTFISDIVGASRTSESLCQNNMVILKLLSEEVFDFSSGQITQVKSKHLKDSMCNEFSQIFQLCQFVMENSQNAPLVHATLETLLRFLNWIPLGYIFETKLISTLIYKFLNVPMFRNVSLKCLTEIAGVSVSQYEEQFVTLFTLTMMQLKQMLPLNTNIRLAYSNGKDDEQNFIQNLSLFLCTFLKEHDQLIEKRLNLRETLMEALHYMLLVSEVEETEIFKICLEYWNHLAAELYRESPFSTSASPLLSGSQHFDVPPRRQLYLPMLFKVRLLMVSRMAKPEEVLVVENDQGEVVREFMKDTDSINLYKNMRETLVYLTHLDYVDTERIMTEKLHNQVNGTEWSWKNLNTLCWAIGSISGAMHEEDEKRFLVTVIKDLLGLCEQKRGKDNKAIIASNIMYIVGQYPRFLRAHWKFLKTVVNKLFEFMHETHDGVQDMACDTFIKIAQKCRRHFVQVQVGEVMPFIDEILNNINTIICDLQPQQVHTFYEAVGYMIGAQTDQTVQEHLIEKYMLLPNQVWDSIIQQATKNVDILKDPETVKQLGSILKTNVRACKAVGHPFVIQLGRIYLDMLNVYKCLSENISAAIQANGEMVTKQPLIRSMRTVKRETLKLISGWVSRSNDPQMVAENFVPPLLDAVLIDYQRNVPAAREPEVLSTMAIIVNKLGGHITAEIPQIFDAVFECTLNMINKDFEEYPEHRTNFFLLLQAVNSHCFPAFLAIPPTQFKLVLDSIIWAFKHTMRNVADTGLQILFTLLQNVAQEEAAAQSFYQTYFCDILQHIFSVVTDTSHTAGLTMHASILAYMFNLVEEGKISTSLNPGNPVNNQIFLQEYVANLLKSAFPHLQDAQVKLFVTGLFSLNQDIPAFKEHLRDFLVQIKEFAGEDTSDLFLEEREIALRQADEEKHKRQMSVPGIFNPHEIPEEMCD
Series [15] has the same target. Description: Inhibition of CRM1-mediated nuclear export in human A549 cells assessed as distribution of GFP-tagged AID in nucleus at 20 uM administered for 12 hrs and measured after 24 hrs by fluorescence microscopy analysis. In kind it is cell-based. Particulars: time 36.0 hrs.
Series [16] concerns Influenza A virus. Description: Anti-influenza activity against Influenza A virus A/Goose/Guangdong/SH7/2013 (H5N1) infected in chicken embryo fibroblast at MOI 1 assessed as reduction in NP expression in nucleus at 10 uM measured after 10 hr post infection by Western blot analysis. In kind it is functional, organism-based.
Series [17] in a line: Binding affinity to influenza A virus M1 assessed as dissociation constant by SPR analysis.
Series [18] is described as follows: Binding affinity to influenza A virus NS2 assessed as dissociation constant by SPR analysis.
Series [19] concerns Influenza A virus. The series can be described thus: Anti-influenza activity against Influenza A virus A/Goose/Guangdong/SH7/2013 (H5N1) infected in chicken embryo fibroblast at MOI 1 assessed as reduction in NP expression in cytoplasm at 10 uM measured after 10 hr post infection by Western blot analysis. In kind it is functional, organism-based.
In series [20] the test system is Influenza A virus. Description: Anti-influenza activity against Influenza A virus A/Goose/Guangdong/SH7/2013 (H5N1) infected in chicken embryo fibroblast at MOI 1 assessed as distribution of NP in nucleus at 10 uM measured after 10 hr post infection by DAPI staining based assay. In kind it is functional, organism-based.
Series [21] has as its target Nucleoprotein (Influenza A virus (strain A/Wilson-Smith/1933 H1N1), UniProt P15682). The series can be described thus: Binding affinity to influenza A virus Nucleoprotein assessed as dissociation constant by SPR analysis.

“And” between values parts separate entries of the source, which are not always exact repeats. Equal entries are not always repeated. The source made the active and inactive calls. The rule behind the calls is not given here.

Nucleoprotein, sequence (P15682 whole entry): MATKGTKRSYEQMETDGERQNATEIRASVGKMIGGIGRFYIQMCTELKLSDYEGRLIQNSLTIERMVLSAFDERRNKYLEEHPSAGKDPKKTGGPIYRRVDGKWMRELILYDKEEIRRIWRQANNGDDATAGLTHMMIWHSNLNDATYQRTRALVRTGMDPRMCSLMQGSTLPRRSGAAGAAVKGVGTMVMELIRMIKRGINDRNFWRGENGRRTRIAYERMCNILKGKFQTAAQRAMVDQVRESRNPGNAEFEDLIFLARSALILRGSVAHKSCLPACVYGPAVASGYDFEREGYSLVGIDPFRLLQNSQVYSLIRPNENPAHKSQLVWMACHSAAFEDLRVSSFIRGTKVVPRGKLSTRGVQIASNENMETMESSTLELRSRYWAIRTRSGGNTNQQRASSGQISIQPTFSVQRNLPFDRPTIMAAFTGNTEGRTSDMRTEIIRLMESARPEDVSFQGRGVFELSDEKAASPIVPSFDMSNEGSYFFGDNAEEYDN
Single-stranded DNA cytosine deaminase (Homo sapiens), sequence (Q9GZX7 whole entry): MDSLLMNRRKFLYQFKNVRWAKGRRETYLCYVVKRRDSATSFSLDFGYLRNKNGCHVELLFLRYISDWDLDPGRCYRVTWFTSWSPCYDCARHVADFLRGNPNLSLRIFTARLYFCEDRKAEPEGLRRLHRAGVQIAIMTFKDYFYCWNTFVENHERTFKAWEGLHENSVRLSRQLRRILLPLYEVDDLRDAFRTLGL

Turning to `CCC(CC)O[C@@H]1C=C(C(=O)O)C[C@H](N)[C@H]1NC(C)=O` [OSELTAMIVIR CARBOXYLATE], the EC50 (usually the concentration that produces a half-maximal response) in [1] was 6.49 µM; in series [2] it was 3.08 µM; in series [6], 5.7 µM; in series [7], more than 100 µM; in series [8] it was 2.43 µM; in series [9] it was 1.08 µM. The EC50 in series [10] came out at 0.98 µM. The Activity in series [3] is 105.08%. For the same molecule, the percent cell viability relative to control at 50 µM in series [4] was determined as 100%. For the same molecule, the “inhibition (INH)” value in series [5] was 98.5% and 97.3%. Also, in series [11], the CC50 (as a rule, the concentration at which the toxic effect on the cells reaches its halfway point) was more than 100 µM.
As for `CCOc1ccc(/C=C/C(=O)/C=C/c2c(OC)cccc2OC)cc1`, the concentration for a half-maximal effect (EC50) in series [1] was found to be 9.6 µM; in [2] it was 7.31 µM; in series [6], 14.9 µM; in series [7] it was 4.56 µM; in series [8], 3.13 µM; in [9] it was 3.69 µM. For the same molecule, in [10], the EC50 was found to be 4.82 µM. For the same molecule, the outcome in [12], in series [13], in series [16], in series [19] and in series [20] was Active. Moreover, the inhibition result in [14] and in [15] was “inactive” each time. The percent cell viability relative to control at 50 µM in [4] was found to be 117%. Moreover, the “inhibition (INH)” value in series [5] was determined as 51.33%. Also, the equilibrium dissociation constant (Kd) (as a rule, the constant that tells how readily two partners part at equilibrium) in [17] was “Not Active”; in [18], “Not Active”; in [21], 0.239 µM. Moreover, the CC50 in [11] was more than 100 µM.
As for `CCC(=C/[C@H](C)C/C=C/C(C)=C/[C@@H](C)C(=O)[C@@H](C)[C@H](O)[C@@H](C)C/C(C)=C/C(=O)O)/C=C/[C@@H]1OC(=O)C=C[C@@H]1C`, the inhibition result in series [15] is “Active”.
As to `COc1cccc(OC)c1C(=O)/C=C/c1nc(C)c(C)nc1C`, the EC50 in series [1] worked out at 10.8 µM; in series [2], 3.51 µM; in series [6] it was 7.34 µM; in series [7], 1.34 µM; in series [8], 3.87 µM; in series [9] it was 3.69 µM. Besides, the EC50 in [10] was 2.47 µM. The percent cell viability relative to control at 50 µM in [4] worked out at 39.1%. For the same molecule, the CC50 in series [11] was less than 50 µM.
For the molecule `COc1cccc(OC)c1/C=C/C(=O)/C=C/c1ccc(-c2ccncc2)cc1`, in series [3], the Activity came out at 153.71%. Further, the “inhibition (INH)” value in series [5] is 26.05%.
`Cc1onc(-c2ccccc2)c1C(=O)N1CCN(c2ccc([N+](=O)[O-])cc2Cl)CC1` [NUCLEOZIN]: the Kd result is “Not Active” in [17], “Not Active” in series [18] and 0.014 µM in [21].
With `COc1cccc(OC)c1/C=C/C(=O)/C=C/c1ccc(N2CCOCC2)cc1`, the EC50 in series [1] was 9.6 µM; in series [2] it was 7.31 µM; in series [6] it was 14.9 µM; in series [7], 4.56 µM; in series [8] it was 3.13 µM; in series [9], 3.69 µM. Moreover, in series [10], the EC50 was determined as 4.82 µM. Moreover, the outcome in series [12], in series [13], in series [16], in series [19] and in [20] was Active. Besides, the inhibition entry in series [14] and in series [15] was “inactive” each time. Further, in series [4], the percent cell viability relative to control at 50 µM amounted to 102%. Further, the “inhibition (INH)” value in [5] turned out to be 96.62%. Moreover, the dissociation constant Kd entry in series [17] was “Not Active”; in series [18], “Not Active”; in series [21] it was 0.239 µM. Also, in series [11], the CC50 is more than 100 µM.
Consider `CCN(CC)c1ccc(/C=C/C(=O)/C=C/c2c(OC)cccc2OC)cc1`, for which the results for the EC50 in series [1] and in series [6] were 13.6 µM and 18.1 µM, respectively. For the same molecule, in series [4], the percent cell viability relative to control at 50 µM came to 117%. In series [5], the “inhibition (INH)” value was found to be 71.5%. The CC50 in [11] is more than 100 µM.
As for `COc1cccc(OC)c1/C=C/C(=O)/C=C/c1ccc(N(C)C)cc1`, the values for the EC50 in series [1] and in [6] were 16 µM and 20.9 µM, respectively. In series [4], the percent cell viability relative to control at 50 µM worked out at 110%. Also, the “inhibition (INH)” value in series [5] is 75.34%. Besides, the half-maximal cytotoxic concentration (CC50) in series [11] was more than 100 µM.

These data come from ChEMBL document CHEMBL5634128, “Development of chalcone-like derivatives and their biological and mechanistic investigations as novel influenza nuclear export inhibitors” (Eur J Med Chem, 2023).
